Test results taken from ChEMBL document CHEMBL1143799, “Synthesis and primary cytotoxicity evaluation of new imidazo[2,1-b]thiazole derivatives” (2007).

How the values were obtained:
Type in all cases: functional
SK-MEL-5 = assay: Growth inhibition of human SK-MEL-5 cells after 48 hrs by SRB protein assay; conditions: SK-MEL-5, 48 h
HCC 2998 = assay: Growth inhibition of human HCC2998 cells after 48 hrs by SRB protein assay; conditions: HCC 2998, 48 h
HOP-62 = assay: Growth inhibition of human HOP62 cells after 48 hrs by SRB protein assay; conditions: HOP-62, 48 h
HT-29 = assay: Growth inhibition of human HT29 cells after 48 hrs by SRB protein assay; conditions: HT-29, 48 h
SF-268 = assay: Growth inhibition of human SF268 cells after 48 hrs by SRB protein assay; conditions: SF-268, 48 h
HOP-92 = assay: Growth inhibition of human HOP92 cells after 48 hrs by SRB protein assay; conditions: HOP-92, 48 h
IGROV-1 = assay: Growth inhibition of human IGROV1 cells after 48 hrs by SRB protein assay; conditions: IGROV-1, 48 h
MDA-MB-435 = assay: Growth inhibition of human MDA-MB-435 cells after 48 hrs by SRB protein assay; conditions: MDA-MB-435, 48 h
UACC-62 = assay: Growth inhibition of human UACC62 cells after 48 hrs by SRB protein assay; conditions: UACC-62, 48 h
EKVX = assay: Growth inhibition of human EKVX cells after 48 hrs by SRB protein assay
SW-620 = assay: Growth inhibition of human SW620 cells after 48 hrs by SRB protein assay; conditions: SW-620, 48 h
SK-OV-3 = assay: Growth inhibition of human SK-OV-3 cells after 48 hrs by SRB protein assay; conditions: SK-OV-3, 48 h
SNB-75 = assay: Growth inhibition of human SNB75 cells after 48 hrs by SRB protein assay; conditions: SNB-75, 48 h
NCI-H23 = assay: Growth inhibition of human NCI-H23 cells after 48 hrs by SRB protein assay; conditions: NCI-H23, 48 h
SN12C = assay: Growth inhibition of human SN12C cells after 48 hrs by SRB protein assay
RXF 393 = assay: Growth inhibition of human RXF393 cells after 48 hrs by SRB protein assay; conditions: RXF 393, 48 h
M14 = assay: Growth inhibition of human M14 cells after 48 hrs by SRB protein assay; conditions: M14, 48 h
DU-145 = assay: Growth inhibition of human DU145 cells after 48 hrs by SRB protein assay; conditions: DU-145, 48 h
PC-3 = assay: Growth inhibition of human PC3 cells after 48 hrs by SRB protein assay; conditions: PC-3, 48 h
SF-539 = assay: Growth inhibition of human SF539 cells after 48 hrs by SRB protein assay; conditions: SF-539, 48 h
CAKI-1 = assay: Growth inhibition of human CAKI1 cells after 48 hrs by SRB protein assay; conditions: CAKI-1, 48 h
CCRF-CEM = assay: Growth inhibition of human CCRF-CEM cells after 48 hrs by SRB protein assay
OVCAR-8 = assay: Growth inhibition of human OVCAR8 cells after 48 hrs by SRB protein assay; conditions: OVCAR-8, 48 h
KM12 = assay: Growth inhibition of human KM12 cells after 48 hrs by SRB protein assay; conditions: KM12, 48 h
SK-MEL-28 = assay: Growth inhibition of human SK-MEL-28 cells after 48 hrs by SRB protein assay; conditions: SK-MEL-28, 48 h
SNB-19 = assay: Growth inhibition of human SNB19 cells after 48 hrs by SRB protein assay; conditions: SNB-19, 48 h
MCF7 = assay: Growth inhibition of human MCF7 cells after 48 hrs by SRB protein assay; conditions: MCF7, 48 h
HCT-116 = assay: Growth inhibition of human HCT116 cells after 48 hrs by SRB protein assay; conditions: HCT-116, 48 h
NCI-H522 = assay: Growth inhibition of human NCI-H522 cells after 48 hrs by SRB protein assay; conditions: NCI-H522, 48 h
COLO 205 = assay: Growth inhibition of human COLO205 cells after 48 hrs by SRB protein assay; conditions: COLO 205, 48 h
OVCAR-3 = assay: Growth inhibition of human OVCAR-3 cells after 48 hrs by SRB protein assay; conditions: OVCAR-3, 48 h
OVCAR-5 = assay: Growth inhibition of human OVCAR5 cells after 48 hrs by SRB protein assay; conditions: OVCAR-5, 48 h
Hs-578T = assay: Growth inhibition of human HS578T cells after 48 hrs by SRB protein assay
HCT-15 = assay: Growth inhibition of human HCT15 cells after 48 hrs by SRB protein assay; conditions: HCT-15, 48 h
UACC-257 = assay: Growth inhibition of human UACC257 cells after 48 hrs by SRB protein assay; conditions: UACC-257, 48 h
T47D = assay: Growth inhibition of human T47D cells after 48 hrs by SRB protein assay
UO-31 = assay: Growth inhibition of human UO31 cells after 48 hrs by SRB protein assay; conditions: UO-31, 48 h
MDA-MB-231 = assay: Growth inhibition of MDA-MB-231 cells after 48 hrs by SRB protein assay; conditions: Homo sapiens, MDA-MB-231, 48 h
NCI-H460 = assay: Growth inhibition of human NCI-H460 cells after 48 hrs by SRB protein assay; conditions: NCI-H460, 48 h

**Q.** `O=C(Cc1csc2nc(-c3ccc(Br)cc3)cn12)N/N=C/c1ccccc1O` was tested. Which GI50 (SK-MEL-5) did it give?
**A.** 2.95 µM

**Q.** And the TGI (SK-MEL-5; read-out: Log TGI (converted))?
**A.** 10.7 µM

**Q.** And the GI50 (HCC 2998)?
**A.** 3.47 µM

**Q.** And the TGI (HCC 2998; read-out: Log TGI (converted))?
**A.** 12.6 µM

**Q.** And the GI50 (HOP-62)?
**A.** 3.89 µM

**Q.** And the TGI (HOP-62; read-out: Log TGI (converted))?
**A.** 14.8 µM

**Q.** What about the GI50 (HT-29) of the same compound?
**A.** 6.03 µM

**Q.** What about the TGI (HT-29; read-out: Log TGI (converted)) of the same compound?
**A.** 19.1 µM

**Q.** And the GI50 (SF-268)?
**A.** > 100 µM

**Q.** What about the TGI (SF-268; read-out: Log TGI (converted)) of the same compound?
**A.** > 100 µM

**Q.** And the GI50 (HOP-92)?
**A.** 2.09 µM

**Q.** And the TGI (HOP-92; read-out: Log TGI (converted))?
**A.** 14.5 µM

**Q.** What about the GI50 (IGROV-1) of the same compound?
**A.** 1.05 µM

**Q.** What about the TGI (IGROV-1; read-out: Log TGI (converted)) of the same compound?
**A.** 11.5 µM

**Q.** What about the GI50 (MDA-MB-435) of the same compound?
**A.** 3.31 µM

**Q.** And the TGI (MDA-MB-435; read-out: Log TGI (converted))?
**A.** 13.5 µM

**Q.** What about the GI50 (UACC-62) of the same compound?
**A.** 2.09 µM

**Q.** And the TGI (UACC-62; read-out: Log TGI (converted))?
**A.** 7.24 µM

**Q.** What about the GI50 (EKVX) of the same compound?
**A.** 3.89 µM

**Q.** And the TGI (EKVX; read-out: Log TGI (converted))?
**A.** 19.1 µM

**Q.** And the GI50 (SW-620)?
**A.** 3.98 µM

**Q.** What about the TGI (SW-620; read-out: Log TGI (converted)) of the same compound?
**A.** 17.4 µM

**Q.** What about the GI50 (SK-OV-3) of the same compound?
**A.** 12.9 µM

**Q.** What about the TGI (SK-OV-3; read-out: Log TGI (converted)) of the same compound?
**A.** 30.2 µM

**Q.** What about the GI50 (SNB-75) of the same compound?
**A.** 12.9 µM

**Q.** And the TGI (SNB-75; read-out: Log TGI (converted))?
**A.** 32.4 µM

**Q.** And the GI50 (NCI-H23)?
**A.** 3.39 µM

**Q.** What about the TGI (NCI-H23; read-out: Log TGI (converted)) of the same compound?
**A.** 14.1 µM

**Q.** What about the GI50 (SN12C) of the same compound?
**A.** 3.31 µM

**Q.** What about the TGI (SN12C; read-out: Log TGI (converted)) of the same compound?
**A.** 15.8 µM

**Q.** And the GI50 (RXF 393)?
**A.** 38 µM

**Q.** And the TGI (RXF 393; read-out: Log TGI (converted))?
**A.** 63.1 µM

**Q.** What about the GI50 (M14) of the same compound?
**A.** 2.57 µM

**Q.** And the TGI (M14; read-out: Log TGI (converted))?
**A.** 7.76 µM

**Q.** What about the GI50 (DU-145) of the same compound?
**A.** 2.88 µM

**Q.** And the TGI (DU-145; read-out: Log TGI (converted))?
**A.** 13.8 µM

**Q.** And the GI50 (PC-3)?
**A.** 4.27 µM

**Q.** And the TGI (PC-3; read-out: Log TGI (converted))?
**A.** 16.6 µM

**Q.** What about the GI50 (SF-539) of the same compound?
**A.** 3.55 µM

**Q.** What about the TGI (SF-539; read-out: Log TGI (converted)) of the same compound?
**A.** 11.7 µM

**Q.** What about the GI50 (CAKI-1) of the same compound?
**A.** 0.398 µM

**Q.** And the TGI (CAKI-1; read-out: Log TGI (converted))?
**A.** 2.4 µM

**Q.** What about the GI50 (CCRF-CEM) of the same compound?
**A.** 1.82 µM

**Q.** What about the TGI (CCRF-CEM; read-out: Log TGI (converted)) of the same compound?
**A.** 8.32 µM

**Q.** And the GI50 (OVCAR-8)?
**A.** 2.29 µM

**Q.** What about the TGI (OVCAR-8; read-out: Log TGI (converted)) of the same compound?
**A.** 12.3 µM

**Q.** What about the GI50 (KM12) of the same compound?
**A.** 3.63 µM

**Q.** And the TGI (KM12; read-out: Log TGI (converted))?
**A.** 17 µM

**Q.** What about the GI50 (SK-MEL-28) of the same compound?
**A.** 12 µM

**Q.** And the TGI (SK-MEL-28; read-out: Log TGI (converted))?
**A.** 24 µM

**Q.** What about the GI50 (SNB-19) of the same compound?
**A.** 6.76 µM

**Q.** What about the TGI (SNB-19; read-out: Log TGI (converted)) of the same compound?
**A.** 25.1 µM

**Q.** What about the GI50 (MCF7) of the same compound?
**A.** 13.2 µM

**Q.** What about the TGI (MCF7; read-out: Log TGI (converted)) of the same compound?
**A.** > 100 µM

**Q.** And the GI50 (HCT-116)?
**A.** 3.24 µM

**Q.** What about the TGI (HCT-116; read-out: Log TGI (converted)) of the same compound?
**A.** 12.3 µM

**Q.** And the GI50 (NCI-H522)?
**A.** 5.25 µM

**Q.** What about the TGI (NCI-H522; read-out: Log TGI (converted)) of the same compound?
**A.** 26.9 µM

**Q.** And the GI50 (COLO 205)?
**A.** 5.13 µM

**Q.** What about the TGI (COLO 205; read-out: Log TGI (converted)) of the same compound?
**A.** 22.9 µM

**Q.** And the GI50 (OVCAR-3)?
**A.** 3.24 µM

**Q.** What about the TGI (OVCAR-3; read-out: Log TGI (converted)) of the same compound?
**A.** 15.1 µM

**Q.** And the GI50 (OVCAR-5)?
**A.** 5.5 µM

**Q.** What about the TGI (OVCAR-5; read-out: Log TGI (converted)) of the same compound?
**A.** 31.6 µM

**Q.** What about the GI50 (Hs-578T) of the same compound?
**A.** 13.5 µM

**Q.** And the TGI (Hs-578T; read-out: Log TGI (converted))?
**A.** 42.7 µM

**Q.** And the GI50 (HCT-15)?
**A.** 0.955 µM

**Q.** What about the TGI (HCT-15; read-out: Log TGI (converted)) of the same compound?
**A.** 17.4 µM

**Q.** What about the GI50 (UACC-257) of the same compound?
**A.** 3.72 µM

**Q.** What about the TGI (UACC-257; read-out: Log TGI (converted)) of the same compound?
**A.** 11.5 µM

**Q.** And the GI50 (T47D)?
**A.** 5.25 µM

**Q.** What about the TGI (T47D; read-out: Log TGI (converted)) of the same compound?
**A.** 23.4 µM

**Q.** What about the GI50 (UO-31) of the same compound?
**A.** 7.08 µM

**Q.** And the TGI (UO-31; read-out: Log TGI (converted))?
**A.** > 100 µM

**Q.** And the GI50 (MDA-MB-231)?
**A.** 3.24 µM

**Q.** What about the TGI (MDA-MB-231; read-out: Log TGI (converted)) of the same compound?
**A.** 17 µM

**Q.** And the GI50 (NCI-H460)?
**A.** 15.8 µM

**Q.** What about the TGI (NCI-H460; read-out: Log TGI (converted)) of the same compound?
**A.** > 100 µM
